The values that follow come from patent US11352322B2, “Cyclopropyl-amide compounds as dual LSD1/HDAC inhibitors” (Jubilant Epicore LLC, priority 2016, dated 2022).

Structures are written as SMILES. Structures can show the parent of a compound that is named as a salt. Where two headings read alike, the source gives them in different places.

In one series the target is LSD1 (Homo sapiens (Human), UniProt O60341). Put plainly: TR-FRET Assay for LSD1. As to conditions: read-out: LSD1 IC50. A general note: Time-resolved FRET reads energy transfer from a long-lived donor to a nearby acceptor.
The conditions of series [1]: human, microsomes, 0.5 h, pH 7.4.
Experimental: (§4) The microsomal suspension was prepared by adding liver microsomes to 100 mM potassium phosphate buffer (pH7.4) to give a final protein concentration of 0.5 mg/mL. The stock solution of NCE (10 mM in DMSO) was added to the microsomes to provide a final concentration of 1 μM. […] Samples were vortexed and centrifuged at 5,000 rpm for 10 min to remove proteins. Supernatant were analyzed on LC-MS/MS.
For another series, the system named is MM1S. Description: Anticancer activity: Alamar Blue assay, MM1S. Type of series: cell-based. As to conditions: Homo sapiens, MM1.S, read-out: MM1S EC50. (In general: The colour change of resazurin is a common sign of viable cells or microbes.)
The target of series [2] is HDAC6 human recombinant enzyme (Homo sapiens (Human), UniProt Q9UBN7). Description: Histone Deacetylase Assay (BPS Biosciences), HDAC6. The series is classed as biochemical. The source says: Histone Deacetylase Assay (BPS Biosciences)
HDAC6 human recombinant enzyme, sequence (Q9UBN7 whole entry): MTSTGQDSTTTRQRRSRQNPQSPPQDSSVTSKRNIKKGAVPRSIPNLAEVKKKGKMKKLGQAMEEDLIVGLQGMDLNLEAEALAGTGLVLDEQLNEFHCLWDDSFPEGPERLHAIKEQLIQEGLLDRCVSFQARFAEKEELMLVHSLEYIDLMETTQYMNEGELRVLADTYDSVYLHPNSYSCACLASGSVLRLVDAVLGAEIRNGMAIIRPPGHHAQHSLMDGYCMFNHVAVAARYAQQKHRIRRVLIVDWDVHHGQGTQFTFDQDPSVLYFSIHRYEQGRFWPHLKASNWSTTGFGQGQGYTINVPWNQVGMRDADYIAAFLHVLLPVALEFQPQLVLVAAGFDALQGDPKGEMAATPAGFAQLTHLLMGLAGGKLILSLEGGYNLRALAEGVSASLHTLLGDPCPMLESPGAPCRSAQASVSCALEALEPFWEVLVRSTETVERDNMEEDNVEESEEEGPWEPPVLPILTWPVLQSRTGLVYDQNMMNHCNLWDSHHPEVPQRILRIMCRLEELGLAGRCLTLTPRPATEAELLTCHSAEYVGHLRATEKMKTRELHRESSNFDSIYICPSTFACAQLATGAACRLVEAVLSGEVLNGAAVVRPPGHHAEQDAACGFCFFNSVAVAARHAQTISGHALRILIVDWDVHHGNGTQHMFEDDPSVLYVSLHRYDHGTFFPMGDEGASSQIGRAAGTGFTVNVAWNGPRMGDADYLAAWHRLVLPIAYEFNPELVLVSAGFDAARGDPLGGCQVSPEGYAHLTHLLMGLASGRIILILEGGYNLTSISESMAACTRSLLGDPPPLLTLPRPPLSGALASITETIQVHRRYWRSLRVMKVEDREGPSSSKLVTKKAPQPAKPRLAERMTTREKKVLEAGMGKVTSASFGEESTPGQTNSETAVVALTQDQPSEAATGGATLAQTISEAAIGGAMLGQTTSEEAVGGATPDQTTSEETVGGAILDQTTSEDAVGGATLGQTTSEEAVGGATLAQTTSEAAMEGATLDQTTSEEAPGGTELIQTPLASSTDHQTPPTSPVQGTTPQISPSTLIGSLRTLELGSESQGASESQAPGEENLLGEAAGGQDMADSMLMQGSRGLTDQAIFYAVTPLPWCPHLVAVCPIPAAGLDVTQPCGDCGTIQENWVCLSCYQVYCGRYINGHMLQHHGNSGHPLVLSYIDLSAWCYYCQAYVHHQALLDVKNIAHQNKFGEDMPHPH
Histone deacetylase assay was done as per manufacturer's instructions.

The conditions of series [3]: mouse, microsomes, 0.5 h, pH 7.4.
Experimental: as §4
A further series concerns MDAMB231. Description: cells. As to conditions: Homo sapiens, MDA-MB-231, 144 h, read-out: Anticancer profileration EC50 MDAMB231. How it is done: (§1) Anticancer Activity: Alamar Blue Assay
(§2) Cells were seeded at 5000 cells/per well in 96-well tissue culture plate and incubated at 37° C./5% CO2. After 16-24 hours, fresh media was added to the wells. Compounds were then (1% DMSO conc.) added to the cells at 10 concentrations ranging from 10-0.0005 uM prepared in 3-fold serial dilutions. […] Alamar Blue™ reagent was added and incubated for 1-3 hours at 37° C./5% CO2. Plates were read on fluorescence reader at 540 nm excitation, 590 nm emission wave lengths.
(§3) As described above, compounds were tested for anticancer activities in different tumor cell lines and GI50 were determined.

A further series relates to A375. Description: cells. The following applies: Homo sapiens, A-375, 144 h, read-out: Anticancer profileration EC50 A375. As for the experimental part:
as §1, §2, §3

Another series has as its system MV-4-11. Description: cells. As to conditions: Homo sapiens, MV4-11, 144 h, read-out: Anticancer profileration EC50 MV-4-11. As for the experimental part: as §1, §2, §3
A further series deals with HEL-92.1.7. Put plainly: cells. As to conditions: Homo sapiens, HEL 92.1.7, 144 h, read-out: Anticancer profileration EC50 HEL-92.1.7. How it is done:
as §1, §2, §3

Another series deals with OCI-AML3. Description: cells. The following applies: Homo sapiens, OCI-AML-3, 144 h, read-out: Anticancer profileration EC50 OCI-AML3. How it is done:
as §1, §2, §3

The nature of series [4]: Metabolic stability in liver microsomes, HLM. The following applies: 1 μM, NADPH. (Liver microsomes are a subcellular fraction often used to study metabolism.)
Experimental: as §4
The next series relates to CCRF-CEM. Description: cells. As to conditions: Homo sapiens, 144 h, read-out: Anticancer profileration EC50 CCRF-CEM. As for the experimental part: as §1
Cells were seeded at 5000 cells/per well in 96-well tissue culture plate and incubated at 37° C./5% CO2. After 16-24 hours, fresh media was added to the wells. Compounds were then (1% DMSO conc.) added to the cells at 10 concentrations ranging from 10-0.0005 uM prepared in 3-fold serial dilutions. Cells were incubated for 68-72 h at 37° C./5% CO2. Alamar Blue™ reagent was added and incubated for 1-3 hours at 37° C./5% CO2. Plates were read on fluorescence reader at 540 nm excitation, 590 nm emission wave lengths.
as §3

The nature of series [5]: Metabolic stability in liver microsomes, MLM. As to conditions: 1 μM, NADPH.
Experimental: as §4

Experimental for LSD1: TR-FRET Assay for LSD1 (Perkin Elmer)
Tranylcypromine (TCP), LSD1 inhibitor was procured from Selleckchem. […] Stop Solution containing 300 μM tranylcypromine in 1× LANCE Detection Buffer was added to the wells and incubated for 5 min at RT. Then, Detection mix containing 2 nM Eu-Ab and 50 nM ULight-Streptavidin in 1× LANCE Detection Buffer was prepared and added to the reaction mix. This mixture was incubated for 1 hour at room temperature.

Turning to `O=C(NO)c1ccc(CCCN2CC3(CC(NC4CC4c4ccccc4)C3)C2)cc1` (stereo not drawn) [Example 46, N-hydroxy-4-(3-(6-((2-phenylcyclopropyl)amino)-2-azaspiro[3.3]heptan-2-1)propyl)benzamide TFA Salt], the IC50 (as a rule, the midpoint of a concentration-inhibition curve) at LSD1 was 26 nM; in series [2], 477 nM. Moreover, the “Metabolic stability HLM % remaining in 30 min” value in [1] is 54/47%. Also, in the series on MM1S (MM1S cells), the EC50 was found to be 71 nM. Moreover, in series [3], the “Metabolic stability MLM % remaining in 30 min” value was 54/47%.

Take `O=C(/C=C/c1ccc(CNC2CC2c2ccc(-c3ccc(Cl)cc3)cc2)cc1)NO` (stereo not drawn) [Example 5, (E)-3-(4-(((2-(4′-chloro-[1,1′-biphenyl]-4-yl)cyclopropyl)amino)methyl)phenyl)-N-hydroxyacrylamide TFA Salt]: the EC50 with MDAMB231 stood at 1600 nM; in the series with A375 it was 2300 nM; in the series on MV-4-11 it was 54 nM; in the series on HEL-92.1.7 it was 26 nM; in the series with OCI-AML3, 146 nM; in the series with CCRF-CEM it was 533 nM. The EC50 in the series on MM1S came to 88 nM. The IC50 at LSD1 was found to be 49 nM. Besides, the “Metabolic stability HLM % remaining in 30 min” value in series [4] stood at 86%. In series [5], the “Metabolic stability MLM % remaining in 30 min” value was 59%.

With `O=C(NO)c1ccc(CCCN2CCC(CNC3CC3c3ccc(F)cc3)CC2)cc1` (stereo not drawn) [Example 47, 4-[3-(4-{[2-(4-Fluoro-phenyl)-cyclopropylamino]-methyl}-piperidin-1-yl)-propyl]-N-hydroxy-benzamide TFA Salt], the EC50 in the series on MDAMB231 was 875 nM; with A375, 3600 nM; in the series with MV-4-11, 5 nM; with HEL-92.1.7 it was 5 nM; in the series with OCI-AML3 it was 146 nM; with CCRF-CEM, 1400 nM. Besides, the figures for the IC50 (on LSD1; in series [2]) were 6 nM and 51 nM, respectively. Also, in [4], the “Metabolic stability HLM % remaining in 30 min” value was 54%. For the same molecule, in [5], the “Metabolic stability MLM % remaining in 30 min” value was 66%.

On to `O=C(NO)c1ccc(CCCN2CCC(CNC3CC3c3ccc(OCc4ccc(F)cc4)cc3)CC2)cc1` (stereo not drawn) [Example 52, 4-(3-(4-(((2-(4-((4-fluorobenzyl)oxy)phenyl)cyclopropyl)amino)methyl)piperidin-1-yl)propyl)-N-hydroxybenzamide TFA Salt], for which the EC50 was determined as 891 nM with MDAMB231; 1700 nM in the series on A375; 1 nM with MV-4-11; 5 nM in the series with HEL-92.1.7; 22 nM with OCI-AML3; 371 nM with CCRF-CEM. Also, the IC50 at LSD1 was found to be 4 nM; in series [2], 12 nM. For the same molecule, the “Metabolic stability HLM % remaining in 30 min” value in series [4] stood at 79%. Moreover, the “Metabolic stability MLM % remaining in 30 min” value in series [5] is 56%.

For `COc1ccc(C2CC2NCc2cn3c(n2)CN(CCCc2ccc(C(=O)NO)cc2)CC3)cc1` (stereo not drawn) [Example 71, N-hydroxy-4-(3-(2-(((2-(4-methoxyphenyl)cyclopropyl)amino)methyl)-5,6-dihydroimidazo[1,2-a]pyrazin-7(8H)-yl)propyl)benzamide TFA Salt], the EC50 in the series with MV-4-11 turned out to be 990 nM; in the series with HEL-92.1.7, 6050 nM; with OCI-AML3, 732 nM. The IC50 at LSD1 came to 1100 nM; in series [2], 28 nM. In series [4], the “Metabolic stability HLM % remaining in 30 min” value came to 73%. In addition, in series [5], the “Metabolic stability MLM % remaining in 30 min” value was under 5%.

Consider `O=C(NO)c1ccc(CCCN2CCC(CNC3CC3c3ccccc3)CC2)cc1` (stereo not drawn) [Example 43, N-hydroxy-4-(3-(4-(((2-phenylcyclopropyl)amino)methyl)piperidin-1-yl)propyl)benzamide TFA Salt], for which the EC50 in the series on MDAMB231 came out at 747 nM; in the series on A375, 1030 nM; in the series on MV-4-11, 2 nM; in the series with HEL-92.1.7, 1 nM; with OCI-AML3, 115 nM; in the series with CCRF-CEM, 493 nM. The “Metabolic stability HLM % remaining in 30 min” value in [4] was found to be 40%. Further, the “Metabolic stability MLM % remaining in 30 min” value in series [5] is given as 56%.

Take `O=C(NO)c1ccc(CCCN2CCn3cc(CNC4CC4c4ccc(F)cc4)nc3C2)cc1` (stereo not drawn) [Example 72, 4-(3-(2-(((2-(4-fluorophenyl)cyclopropyl)amino)methyl)-5,6-dihydroimidazo[1,2-a]pyrazin-7(8H)-yl)propyl)-N-hydroxybenzamide TFA Salt]: the EC50 is 978 nM in the series on MV-4-11, 4800 nM in the series with HEL-92.1.7, 573 nM in the series on OCI-AML3 and 343 nM in the series with MM1S. The IC50 turned out to be 730 nM at LSD1 and 18 nM in series [2]. In addition, the “Metabolic stability HLM % remaining in 30 min” value in series [4] is on record as 67%. Moreover, in series [5], the “Metabolic stability MLM % remaining in 30 min” value is on record as under 5%.

`O=C(NO)c1cnc(N2CCC(NC3CC3c3ccc(OCc4ccc(F)cc4)cc3)CC2)nc1` (stereo not drawn) [Example 12, 2-(4-((2-(4-((4-fluorobenzyl)oxy)phenyl)cyclopropyl)amino)piperidin-1-yl)-N-hydroxypyrimidine-5-carboxamide TFA Salt]: the EC50 in the series with MDAMB231 was determined as 1300 nM; in the series on A375 it was 2800 nM; in the series on MV-4-11, 9 nM; in the series with HEL-92.1.7 it was 4 nM; with OCI-AML3, 41 nM; in the series on CCRF-CEM it was 375 nM. Moreover, the EC50 in the series with MM1S stood at 11 nM. For the same molecule, the “Metabolic stability HLM % remaining in 30 min” value in series [4] is 95%. For the same molecule, in [5], the “Metabolic stability MLM % remaining in 30 min” value worked out at 85%.

Consider `O=C(NO)c1ccc(CCCN2CCC(CNC3CC3c3ccc(-c4ccc(Cl)cc4)cc3)CC2)cc1` (stereo not drawn) [Example 56, 4-(3-(4-(((2-(4′-chloro-[1,1′-biphenyl]-4-yl)cyclopropyl)amino)methyl)piperidin-1-yl)propyl)-N-hydroxybenzamide TFA Salt], for which the EC50 was determined as 7 nM with MV-4-11, 10 nM with HEL-92.1.7 and 10 nM with OCI-AML3. Also, the IC50 was determined as 2 nM on LSD1 and 19 nM in [2]. For the same molecule, the “Metabolic stability HLM % remaining in 30 min” value in series [4] is 87%. Further, the “Metabolic stability MLM % remaining in 30 min” value in [5] is 75%.

On to `O=C(NO)c1cnc(N2CCC(CNC3CC3c3ccc(F)cc3)CC2)nc1` (stereo not drawn) [Example 8, 2-(4-(((2-(4-fluorophenyl)cyclopropyl)amino)methyl)piperidin-1-yl)-N-hydroxypyrimidine-5-carboxamide TFA Salt], for which the EC50 with MDAMB231 is 193 nM; in the series on A375, 698 nM; in the series on MV-4-11, 48 nM; with HEL-92.1.7 it was 42 nM; in the series on OCI-AML3, 46 nM; with CCRF-CEM, 119 nM. Moreover, the EC50 in the series with MM1S was determined as 7 nM. Besides, the “Metabolic stability HLM % remaining in 30 min” value in [4] came to 88%. In addition, the “Metabolic stability MLM % remaining in 30 min” value in series [5] worked out at 52%. The IC50 in series [2] is 88 nM.
